Values of other authors as cited in patent publication US9675585B1, “Extended release pharmaceutical formulations” (Ezra Pharma, priority 2016, dated 2017).

**Q.** For `CCCCC(=O)N(Cc1ccc(-c2ccccc2-c2nnn[nH]2)cc1)[C@H](C(=O)O)C(C)C` [valsartan], which “time after which plasma concentration reaches very low level” value (following Cmax) is on record?
**A.** Its value is 10 to 12 h.

**Q.** What about the Tmax (oral administration) of the same molecule?
**A.** The Tmax was 2 to 4 h.
